Experimental data taken from patent US20260355184A1, “SMALL MOLECULE DEGRADERS OF HIV-1 TAT PROTEIN” (priority 2022, published 2026).
Read-outs that look alike come from different tables or passages of the source.

Experiments:
[1] = system: HIV NL4.3 strain; test: HIV infectivity assay, reporter cell line HeLa-CD4-LTR-LacZ, β-Gal activity (Tat protein inhibition); assay type: cell-based, HIV-1 (NL4.3)
Method: (§1) Next, the activity of these leads against HIV infection was evaluated using the reporter cell line HeLa-CD4-LTR-LacZ, which stably expresses the β-galactosidase (β-Gal) gene under the control of the HIV 5′ LTR. The HIV NL4.3 strain was used for these studies and β-Gal activity was measured 72 hrs post infection (FIG. 3A). Cytotoxicity assays using Cell-Titer-Glo were performed in parallel to assess cell viability (FIG. 3A). […] Their anti-HIV activity was further assessed in acute replication of Jurkat T cells with the NL4.3 strain (FIG. 3A). […] These OM10.1 cells contain a single integrated wild-type provirus, while ACH-2 cells contain a single integrated provirus with a TAR mutation C37T, defective Tat-TAR feedback loop (FIG. 3B).

[2] = Cytotoxicity assay, Cell-Titer-Glo, HeLa-CD4-LTR-LacZ; settings: human, hela-cd4-ltr-lacz cells
Method: as §1

[3] = HeLa-CD4 cell NL4.3 infection assays
[4] = Human immunodeficiency virus 1, read-out: Infectivity IC50, HeLa-CD4-LTR-LacZ, analogs of TT-44863 (Table 2)
[5] = Infectivity CC50, HeLa-CD4-LTR-LacZ, analogs of TT-44863 (Table 2)
[6] = Human immunodeficiency virus 1, read-out: Infectivity IC50, HeLa-CD4-LTR-LacZ, analogs of TT-44881 (Table 1)
[7] = Infectivity CC50, HeLa-CD4-LTR-LacZ, analogs of TT-44881 (Table 1)
[8] = Human immunodeficiency virus 1, read-out: Infectivity IC50, HeLa-CD4-LTR-LacZ, analogs of TT-44856 (Table 3)
[9] = Infectivity CC50, HeLa-CD4-LTR-LacZ, analogs of TT-44856 (Table 3)

Compound	IC50 [1, 4] [µM]	CC50 [2, 5] [µM]	IC50 [1, 6] [µM]	CC50 [2, 7] [µM]	further results
COc1ccc(C(F)(F)F)cc1NC(=O)Cn1cc(C(F)(F)F)cc(Cl)c1=O [TT-46600]	1 to 10	> 100			increase of potency vs TT-44863 [1, 3]: ~ 5 fold
COc1ccccc1CNC(=O)Cn1cc(C(F)(F)F)cc(Cl)c1=O [compound 46688]	> 100	> 100			
O=C(NCCCN1CCCC1=O)c1cn(-c2ccccc2)c2ccc(F)cc12 [compound 46880]			50 to 100	50 to 100	
O=C(NCCCN1CCCC1=O)c1ccn(-c2ccccc2)n1 [compound 45732]			> 100	> 100	
CCCN(CCCN1CCCC1=O)C(=O)c1nn(-c2ccccc2)c2c1CCC2 [GB-06]			5 to 30	> 100	
O=C1CCc2c(C(=O)NCCCN3CCCC3=O)nn(-c3ccccc3)c2C1 [GB-11]			10 to 20	> 100	
CCOC(=O)c1c(NCCCN2CCCC2=O)c2ccccc2[nH]c1=O [compound 46823]			> 100	> 100	
CCC(C(=O)NCCCn1ccnc1)c1ccccc1 (stereo not drawn) [3-72]					IC50 [1, 8]: > 100 µM; CC50 [2, 9]: > 100 µM
COc1ccc(C(F)(F)F)cc1CNC(=O)Cn1cc(C(F)(F)F)ccc1=O [compound 46960]	> 100	> 100			
Cc1cccc(-n2cc(C(=O)NCCCN3CCCC3=O)c3ccccc32)c1 [compound 46824]			> 100	> 100	
O=C(NCCCn1ccnc1)c1ccc(-n2cc(Br)cn2)cc1 [3-40]					IC50 [1, 8]: > 100 µM; CC50 [2, 9]: > 100 µM
COc1ccc(OC)c(NC(=O)Cn2cc(C(F)(F)F)cc(Cl)c2=O)c1 [compound 46868]	> 100	> 100			
CC(C(=O)NCCCc1cccnc1)(c1ccccc1)c1ccccc1 [3-76]					IC50 [1, 8]: 1 to 30 µM; CC50 [2, 9]: 10 to 30 µM
COc1cc(C(F)(F)F)ccc1NC(=O)Cn1cc(C(F)(F)F)cc(Cl)c1=O [compound 46808]	1 to 30	> 100			
CCc1nccn1CCCNC(=O)C(C)(c1ccccc1)c1ccccc1 [3-56]					IC50 [1, 8]: 10 to 20 µM; CC50 [2, 9]: > 100 µM
CCc1cc(C(=O)NCCCN2CCCC2=O)nn1-c1ccccc1 [GB-13]			10 to 20	> 100	
NC(C(=O)NCCCn1ccnc1)(c1ccccc1)c1ccccc1 [3-42]					IC50 [1, 8]: 10 to 30 µM; CC50 [2, 9]: > 100 µM
COc1cc(C(F)(F)F)ccc1NC(=O)Cn1cccc(Cl)c1=O [compound 47171]	> 100	> 100			

Compound	IC50 [1, 4] [µM]	CC50 [2, 5] [µM]	IC50 [1, 6] [µM]	CC50 [2, 7] [µM]	further results
COc1ccc(C(F)(F)F)cc1-c1noc(Cn2cc(C(F)(F)F)ccc2=O)n1 [compound 47199]	> 50	> 50			
O=C(NCCCN1CCCC1=O)c1c[nH]nc1C1CC1 [compound 46821]			> 100	> 100	
CCCC(=O)NC(C(=O)NCCCn1ccnc1)(c1ccccc1)c1ccccc1 [3-60]					IC50 [1, 8]: > 100 µM; CC50 [2, 9]: > 100 µM
O=C(Cn1cc(C(F)(F)F)cc(Cl)c1=O)Nc1cccc2c1OCCO2 [compound 46615]	> 100	> 100			
COc1ccc(Cl)cc1NC(=O)Cn1cc(C(F)(F)F)cc(Cl)c1=O [TT-46603]	20 to 30	50 to 100			decrease of potency vs TT-44863 [1, 3]: ~ 5 fold
COc1ccc(C(F)(F)F)cc1NC(=O)C(CCO)n1cc(C(F)(F)F)cc(Cl)c1=O (stereo not drawn) [compound 60]	10 to 50	10 to 30			
CC(C)(C)OC(=O)COCCOCCOc1ccc(C(F)(F)F)cc1NC(=O)Cn1cc(C(F)(F)F)cc(Cl)c1=O [compound 47]	50 to 100	> 100			
NS(=O)(=O)c1ccc(CCNC(=O)c2cn(-c3ccccc3)c3ccccc23)cc1 [compound 41799]			5 to 20	> 100	
COc1ccc(C(F)(F)F)cc1NC(=O)C(C)n1cc(C(F)(F)F)cc(Cl)c1=O (stereo not drawn) [compound 49]	1 to 20	> 100			
O=C(NCCCN1CCCC1=O)c1cn(-c2ccccc2)c2ccccc12 [compound 46878]			50 to 100	> 100	
CC(C)c1nccn1CCCNC(=O)C(C)(c1ccccc1)c1ccccc1 [3-54]					IC50 [1, 8]: 1 to 20 µM; CC50 [2, 9]: 50 to 100 µM
Cc1ccc(CC(=O)NCCCn2cnc3ccccc32)cc1 [Z102452176]					IC50 [1, 8]: 10 to 30 µM; CC50 [2, 9]: > 100 µM
CCN(CCCN1CCCC1=O)C(=O)c1nn(-c2ccccc2)c2c1CCC2 [GB-05]			> 100	> 100	
O=C(NCCCn1ccnc1)C1(O)c2ccccc2-c2ccccc21 [3-36]					IC50 ([1]; Human immunodeficiency virus 1, read-out: Infectivity IC50): 20 to 50 µM; CC50 [2]: > 100 µM
CN1CCN(CCOc2ccc(C(F)(F)F)cc2NC(=O)Cn2cc(C(F)(F)F)cc(Cl)c2=O)CC1 [compound 52]	10 to 20	25 to 50			
COc1cc(NC(=O)Cn2cc(C(F)(F)F)cc(Cl)c2=O)cc(C(F)(F)F)c1 [compound 61]	> 100	> 100			
CC(C(=O)NCCCN1CCNCC1)(c1ccccc1)c1ccccc1 [3-55]					IC50 [1, 8]: > 100 µM; CC50 [2, 9]: > 100 µM
